Source: article PMC5402304, “Oxoaporphine Metal Complexes (Co^II, Ni^II, Zn^II) with High Antitumor Activity by Inducing Mitochondria-Mediated Apoptosis and S-phase Arrest in HepG2” (Scientific Reports, 2017)

Assays:
Type in all cases: cell-based, human
HL-7702 = assay: MTT cytotoxicity assay, normal liver cells HL-7702; conditions: 48 h
Description: (§1) The in vitro cytotoxicity of OD, 1–3 and the corresponding metal salts were determined by MTT assay towards a panel of human tumor cells including HepG2, T-24, BEL-7404, MGC80-3, SK-OV-3/DDP and normal HL-7702 cells. As the positive control, cisplatin was dissolved at a concentration of 1 mM in 0.154 M NaCl[32].
(§2) The human tumor cell lines (BEL-7404, HepG2, MGC80–3, T-24, SK-OV-3/DDP and HeLa cells) and the human normal liver cell line HL-7702 were obtained from Shanghai Cell Bank in Chinese Academy of Sciences. Cells were cultured in Dulbecco’s modified Eagle’s medium (DMEM) or RPMI-1640 medium, which supplemented with 10% fetal bovine serum (FBS) and 100 U/mL penicillin and streptomycin. Cells were cultured at 37 °C in a humidified atmosphere with 5% CO2/95% air. Tested compounds (2.0 mM) were prepared as DMSO stock solution before they were diluted to working concentrations by PBS buffer (containing 0.5% DMSO), while cisplatin dissolved in 0.9% sodium chloride solution was used as positive controls.
(§3) Cells in their logarithmic phase were seeded in 96-well plates with 5.5 × 10^3/180 μL per well for 24 h. Then 20 μL of compounds at various concentrations were added to each well to achieve final concentrations of 1.25, 2.5, 5.0, 10.0, and 20.0 μM. All the cells were incubated with test compounds for another 48 h before MTT assay. Control wells contained media with 0.5% DMSO. After 48 h of cultivation, 10 μL of MTT (5 mg/mL in PBS) was added to each well, and cells were incubated at 37 °C for 6 h. The contents in the wells were pipetted out carefully, and the formazan crystals formed were dissolved in 100 μL of DMSO, and the absorbance was measured by enzyme labeling instrument with 490 nm/630 nm double wavelength measurement. The IC50 value was defined as a drug concentration killing 50% cells in comparison with untreated controls, which was calculated by the Bliss method (n = 5). All tests were repeated in at least three independent trials.

HepG2 = assay: Cell apoptosis assay by flow cytometry, Annexin V-FITC/PI; conditions: HepG2, 5.0 μM, 24 h
Description: The quantitative analysis of apoptotic HepG2 induced by 1–3 (1.0, 2.0 and 5.0 μM) and their corresponding metal salts (5.0 μM) after 24 h treatment, were investigated by flow cytometry and Annexin V-FITC/PI double staining. As depicted in Figs 7 and S6, 1–3 caused a significant increase in apoptotic cells comparing to the untreated cells.
Cell cycle progression and apoptosis were determined by flow cytometric analysis. (a) Cell cycle arrest assay: HepG2 cells in their logarithmic phase were plated into 50 mL plates at a final density of 5−6 × 10^6 cells/well overnight, then they were treated with various doses (0.25, 0.5 and 1.0 μM) of 1–3 for another 24 h. Cells were trypsinized, collected, and fixed in ice-cold 75% ethanol at −20 °C overnight. After centrifugation, the fixed cells were rinsed with ice-cold phosphate buffered saline (PBS), and resuspended in 0.5 mL of PBS containing 100 μg/mL RNase, 50 μg/mL propidium iodide (PI) in the dark for 5−10 min. The cell cycle distribution was analyzed by FACS Calibur flow cytometer (BD) and calculated using ModFIT LT software. (b) Apoptosis assay: 1 × 10^5 HepG2 cells were plated in 6-well plates, after incubation for 24 h with complexes 1–3 at 1.0, 2.0 and 5.0 μM, cells were collected, and Apoptosis Detection kit FITC Annexin V was used to analyze the cell apoptosis according to the manufacturer’s instructions.

MGC80-3 = assay: MTT cytotoxicity assay, MGC80-3
Description: as §1, §2, §3

For [Zn(OD)2(H2O)2] (ClO4)2 [Complex 3], the inhibitive ratio (HL-7702; HL-7702, 20 μmol/L) was 59.26±0.15%, the IC50 (HL-7702; HL-7702 normal liver cells, MTT) was 7.13 ± 0.46 µM and the “population of apoptotic cells” value (HepG2) was 25.3%. The inhibitive ratio (MGC80-3; MGC80-3, 20 μmol/L, 48 h) was 67.30±0.21% and the IC50 (MGC80-3; MGC80-3, 48 h, MTT) was 4.31 ± 0.31 µM.
